Assay results published in PubChem BioAssay (NCI).
Several values for one entry are separate records, joined by “and”; a condition that tells them apart may be missing. Identical values can stand only once.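 In this assay, cells in 96-well plates receive the compound at five concentrations for 48 hours. Endpoints are linearly interpolated between the surrounding concentrations. At the GI50, growth is halved. TGI: total growth inhibition.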 Where a SMILES comes first, the peptide text is derived from it. [ ]: non-standard residue; d: D form. The star is where a group is joined. Phe(4-NO2) = N[CH](Cc1ccc([N+](=O)[O-])cc1)C(=O)O; Boc = CC(C)(C)OC(=O)*

Assays:
Test in all cases: NCI tumour cell line growth inhibition, 48 h
[1] = tested on: COLO 205 colon
[2] = tested on: HCT-15 colon
[3] = tested on: MCF7 breast
[4] = tested on: NCI-H460 lung
[5] = tested on: PC-3 prostate
[6] = tested on: SNB-19 CNS
[7] = tested on: SW-620 colon
[8] = tested on: T-47D breast
[9] = tested on: UACC-257 melanoma
[10] = tested on: RXF 393 renal

SMILES	TGI [1] [µM]	TGI [2] [µM]	TGI [3]	TGI [4] [µM]	TGI [5] [µM]	TGI [6] [µM]	TGI [7] [µM]	TGI [8] [µM]	TGI [9] [µM]	TGI [10] [µM]	GI50 [2]	GI50 [1] [µM]	GI50 [3] [µM]	GI50 [4] [µM]	GI50 [5] [µM]	GI50 [7] [µM]	GI50 [8] [µM]	GI50 [9] [µM]	GI50 [10] [µM]	GI50 [6] [µM]
c1ccc2c(Nc3ncco3)cccc2c1	> 10	> 10	> 10 µM	> 10	> 10	> 10	> 10	> 10	> 10	–	–	–	–	–	–	–	–	–	–	–
C/C(=C\Cc1ccc(F)cc1)CCCCCC/C(C)=C/Cc1ccc(F)cc1	37.6	34.1	45.8 µM	17	33.3	75.9	48.6	–	33.3	42.1	–	–	–	–	–	–	–	–	–	–
CC(=O)OCC1OC(SC2=NC(=O)CS2)C(OC(C)=O)C(OC(C)=O)C1OC(C)=O (stereo not drawn)	–	> 100	> 100 µM	> 100	> 100	> 100	> 100	> 100	> 100	> 100	26.3 µM and 53 µM	–	–	–	–	–	–	–	–	–
Cc1ccc(-n2nncc2[Si](C)(C)C)s1	> 100	> 100	> 100 µM	> 100	> 100	> 100	> 100	> 100	> 100	–	–	–	–	–	–	–	–	–	–	–
CCC1=C(C[C@H]2NCCc3cc(OC)c(OC)cc32)C[C@H]2c3cc(OC)c(OC)cc3CCN2C1	–	1.02	–	0.134	–	–	11.3	–	0.365	0.0698	–	–	–	–	–	–	–	–	–	–
COc1cc2nc(N3CCC[C@H](NC4=CC(=O)c5ccccc5C4=O)C3)nc(N)c2cc1OC	3.47	4.86	3.3 µM	4.01	3.67	–	3.32	3.63	3.94	–	2.01 µM	1.91	1.61	1.96	1.75	1.5	1.9	2.18	–	–
Cc1ccc(N2C(=O)C3CSCN3C2=O)cc1 (stereo not drawn)	> 100	> 100	> 100 µM	> 100	–	> 100	> 100	–	> 100	> 100	–	–	–	–	–	–	–	–	> 100	–
CN(C)C=N[C@@H](C(=O)O)c1ccccc1	> 100	> 100	> 100 µM	> 100	> 100	> 100	> 100	> 100	> 100	–	–	–	–	–	–	–	–	–	–	–
CC(=O)CC(=O)N1CCSC1=S	–	> 10	> 10 µM	> 10	> 10	> 10	> 10	> 10	> 10	> 10	–	–	–	–	–	–	–	–	–	–
CC(C)[C@H](C)/C=C/[C@@H](C)C1CC[C@H]2[C@@]34C=C[C@]5(C[C@@H](O)CC[C@]5(C)[C@H]3CC[C@]12C)OO4 (stereo partly drawn)	> 100	> 100	> 100 µM	> 100	–	81.7	78.8	> 100	> 100	> 100	–	–	–	–	–	–	–	–	–	–
COC(=O)c1onc(C2OC(C)(C)OC2C(O)COC(c2ccccc2)(c2ccccc2)c2ccccc2)c1C(=O)OC (stereo not drawn)	> 100	> 100	> 100 µM	–	> 100	> 100	> 100	> 100	–	> 100	–	–	–	–	–	–	–	–	–	–
COC(=O)c1c2c(cc3c1CC1(Cc4cc5c(c(C)c4C1)CCC5)C3)CCC2 (stereo not drawn)	–	> 100	> 100 µM	> 100	> 100	> 100	> 100	> 100	> 100	> 100	–	–	–	–	–	–	–	–	–	–
Cc1cc(S(=O)(=O)Nc2nc3cscc3c(=O)n2N)c(S)cc1Cl	> 100	> 100	> 100 µM	> 100	> 100	> 100	> 100	–	> 100	–	–	–	–	–	–	–	–	–	–	–
COc1c(C)c(C/C=C(\C)CCCC(C)CCCC(C)CCCC(C)C)c(OC)c2ccccc12 (stereo not drawn)	> 100	> 100	> 100 µM	> 100	> 100	> 100	> 100	–	> 100	> 100	–	–	–	–	–	–	–	–	–	–
CC(C)(C)OC(=O)C(C#N)C(=O)c1ccc(C(=O)O)[nH]1 (stereo not drawn)	> 100	> 100	–	> 100	> 100	> 100	> 100	> 100	> 100	–	–	–	–	–	–	–	–	–	–	–
c1ccc2c[n+](CCCC[n+]3ccc4ccccc4c3)ccc2c1	> 100	> 100	> 100 µM	> 100	> 100	> 100	> 100	> 100	> 100	> 100	–	–	–	–	–	–	–	–	–	–
CCOC(=O)CCC(NC(=O)C(Cc1ccc([N+](=O)[O-])cc1)NC(=O)OC(C)(C)C)C(=O)NC(CCC(=O)OCC)C(=O)OCC (stereo not drawn) (Boc-[Phe(4-NO2)]-Glu(OEt)-Glu(OEt)-OEt; configuration not given here)	57.1	> 100	> 100 µM	57.3	39.5	> 100	40.2	–	–	30.2	–	–	–	–	–	–	–	–	–	–
CCOC(=O)CCc1cn2cc(Br)nc(OC)c2n1	> 100	> 100	> 100 µM	> 100	> 100	> 100	> 100	> 100	> 100	> 100	–	–	–	–	–	–	–	–	–	–
O=c1c2ccccc2nc(N/N=C/c2ccc([N+](=O)[O-])cc2)n1-c1ccccc1	> 100	> 100	> 100 µM	> 100	> 100	> 100	–	> 100	> 100	32.7	–	–	–	–	–	–	–	–	–	–
Oc1ccc(Cl)cc1-c1cc(-c2ccccc2)nc(=S)[nH]1	> 100	> 100	> 100 µM	> 100	> 100	> 100	> 100	> 100	> 100	> 100	–	–	–	–	–	–	–	–	–	–
Cc1cc2nc3ccccc3n2c2ccccc12	> 10	> 10	> 10 µM	> 10	> 10	> 10	> 10	> 10	> 10	> 10	–	–	–	–	–	–	–	–	–	–
O=C(O)Cn1c2c(c3c1-c1ccccc1C3=O)C(=O)CCC2	> 100	> 100	> 100 µM	> 100	–	> 100	> 100	> 100	> 100	> 100	> 100 µM	> 100	> 100	> 100	–	> 100	> 100	> 100	> 100	> 100

SMILES	TGI [1] [µM]	TGI [2] [µM]	TGI [3]	TGI [4] [µM]	TGI [5] [µM]	TGI [6] [µM]	TGI [7] [µM]	TGI [8] [µM]	TGI [9] [µM]	TGI [10] [µM]	GI50 [2]	GI50 [1] [µM]	GI50 [3] [µM]	GI50 [4] [µM]	GI50 [5] [µM]	GI50 [7] [µM]	GI50 [8] [µM]	GI50 [9] [µM]	GI50 [10] [µM]	GI50 [6] [µM]
Oc1cccc2c(Br)ccnc12	27.3	24.2	> 31.6 µM	42	38.1	64.1	16.7	> 51.5	16.1	32.4	–	–	–	–	–	–	–	–	–	–
CCOC(=O)C1CCC(=O)N1C(=O)c1cccc(Cl)c1 (stereo not drawn)	–	> 100	> 100 µM	> 100	> 100	> 100	> 100	> 100	> 100	> 100	–	–	–	–	–	–	–	–	–	–
O=c1cc(N2CCOCC2)n2c(ccc3ccccc32)n1	> 100	> 100	> 100 µM	–	> 100	> 100	> 100	> 100	> 100	> 100	–	–	–	–	–	–	–	–	–	–
N/N=C(/N)SCCCCCCCCCCS/C(N)=N/N	27.7	27.5	64.4 µM	32.7	> 100	> 100	36.6	35.4	> 100	–	–	–	–	–	–	–	–	–	–	–
Cc1ccc(S(=O)(=O)OCCC2CN(C(=O)OCc3ccccc3)C(C)(C)O2)cc1 (stereo not drawn)	> 100	32.5	33.7 µM	14.3	50	27.3	> 100	–	> 100	> 100	–	–	–	–	–	–	–	–	–	–
Cc1nc2ccc(Br)cc2c(=O)n1-c1ccc(N)cc1	> 100	> 100	> 100 µM	> 100	> 100	> 100	> 100	–	> 100	81.8	–	–	–	–	–	–	–	–	–	–
O=C1c2ccncc2C(=O)c2c(O)ccc(O)c21	13.1	24.3	–	29.4	–	24.8	11.5	–	–	16.8	–	–	–	–	–	–	–	–	–	–
COc1cccc2c1OC1c3ccccc3OCC1(O)C2 (stereo not drawn)	> 100	> 100	> 100 µM	–	> 100	–	> 100	> 100	> 100	–	–	–	–	–	–	–	–	–	–	–
Oc1c(Cl)cc2cc1-c1cc(cc(Cl)c1O)CCc1c(cc(Cl)c(O)c1Cl)-c1cc(Cl)c(c(Cl)c1O)/C=C\2	16.4	17.4	–	13.1	20.3	26	31.5	19.2	35.8	> 50	–	–	–	–	–	–	–	–	–	–
O=C1C(N2CCN(CCOCCO)CC2)=C(Cl)C(=O)c2ncccc21	36.8	37.4	5.97 µM and 36.7 µM	> 100	38.9	–	50.7	6.75	39.9	35.1	–	19.3	18.3	–	–	–	–	–	–	–
O=c1[nH]n(CCc2ccccc2CCl)c2ccc([N+](=O)[O-])cc12	> 100	> 100	> 100 µM	> 100	> 100	> 100	> 100	–	> 100	> 100	–	–	–	–	–	–	–	–	–	–
O=Nc1c(-c2c(O)[nH]c3ccc(I)cc23)[nH]c2ccccc12	> 100	> 39.9	> 19.9 µM	> 47.4	> 27.9	> 62.1	–	> 69.8	> 100	3.81	–	–	–	–	–	–	–	–	–	–
O=C1C=C(N2CCN(c3ncccn3)CC2)C(=O)c2c(O)ccc(O)c21	> 100	> 100	> 100 µM	> 100	> 100	> 100	> 100	> 100	> 100	–	–	–	–	–	–	–	–	–	–	–
COc1ccc(-n2c(N)c(C#N)c(C#N)c2-c2ccco2)cc1	> 100	> 100	> 100 µM	–	> 100	> 100	> 100	> 100	> 100	> 100	–	–	–	–	–	–	–	–	–	–
Cc1cc2c(=O)c3ccc(Cl)cc3[nH]c2c(C(N)=O)c1C	> 100	> 100	–	> 100	–	> 100	> 100	–	> 100	–	–	–	–	–	–	–	–	–	–	–
COc1ccc(/C=c2\[nH]c3nc(=O)c(N4CCCCC4)c(N)n3c2=O)cc1	> 100	> 100	> 100 µM	–	–	> 100	> 100	> 100	> 100	> 100	–	–	–	–	–	–	–	–	–	–
Cc1cc2c(c(C(=O)NCC(=O)O)c1)Oc1c(cc(C)cc1C(=O)NCC(=O)O)S2	> 100	> 100	> 100 µM	–	> 100	> 100	> 100	> 100	> 100	> 100	–	–	–	–	–	–	–	–	–	–
COC(=O)[C@@H](NS(=O)(=O)CC12CCC(CC1)C2(C)C)C(C)(C)C	> 100	> 100	> 100 µM	> 100	–	> 100	> 100	> 100	> 100	> 100	–	–	–	–	–	–	–	–	–	–
Cn1c2ccccc2n2c3ncccc3c(=O)cc12	> 100	> 100	–	> 100	–	> 100	> 100	> 100	> 100	> 100	–	–	–	–	–	–	–	–	–	–
COC(=O)C(Cc1c[nH]c2ccccc12)NC(=O)C(Cc1c[nH]c2ccccc12)NC(=O)C(Cc1c[nH]c2ccccc12)NC(=O)C(Cc1c[nH]c2ccccc12)NC(=O)C(Cc1c[nH]c2ccccc12)NC(=O)C(Cc1c[nH]c2ccccc12)NC(=O)C(Cc1c[nH]c2ccccc12)NC(=O)OC(C)(C)C (stereo not drawn) (Boc-WWWWWWW-OMe; configuration not given here)	–	> 100	> 100 µM	> 100	> 100	> 100	> 100	> 100	> 100	–	–	–	–	–	–	–	–	–	–	–
Cc1cc(=O)[nH]c(NNC(C#N)c2ccccc2O)n1 (stereo not drawn)	> 100	> 100	–	> 100	–	–	> 100	–	> 100	> 100	–	–	–	–	–	–	–	–	–	–
Cn1c2ccc(Cl)cc2c2ccc3c(c21)C(=O)C=CC3=O	> 10	> 10	> 10 µM	> 10	> 10	> 10	> 10	> 10	> 10	–	–	–	–	–	–	–	–	–	–	–
